Results on 28 compounds are retold here after patent US9655887B2, “Pharmaceutical composition and the use thereof, and application regime of said pharmaceutical composition for on-demand contraception” (BAYER PHARMA AKTIENGESELLSCHAFT, priority 2013, dated 2017).

The target of the assay is EP2 subtype of the human PGE2 receptor (hEP2 receptor) (Homo sapiens, UniProt P43116). Nature of the assay: cAMP antagonism test, human prostaglandin E2 (subtype EP2) receptor signal. Format: cell-based. From the text: 1. Detection of Antagonism to the Human Prostaglandin E2 (Subtype EP2) Receptor Signal
Chain of EP2 subtype of the human PGE2 receptor (hEP2 receptor) (P43116 whole entry): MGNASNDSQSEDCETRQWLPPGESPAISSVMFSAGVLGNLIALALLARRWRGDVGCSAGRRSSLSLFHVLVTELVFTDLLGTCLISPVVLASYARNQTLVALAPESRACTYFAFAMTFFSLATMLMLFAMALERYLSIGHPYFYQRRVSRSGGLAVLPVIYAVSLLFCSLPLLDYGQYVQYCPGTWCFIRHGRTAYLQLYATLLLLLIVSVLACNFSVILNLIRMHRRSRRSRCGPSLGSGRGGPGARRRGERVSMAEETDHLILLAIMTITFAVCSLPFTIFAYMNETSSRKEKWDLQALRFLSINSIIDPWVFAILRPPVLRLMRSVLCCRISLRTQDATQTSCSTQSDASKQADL
The binding of PGE2 to the EP2 subtype of the human PGE2 receptor induces the activation of membrane-located adenylate cyclases and leads to the formation of cAMP. In the presence of the phosphodiesterase inhibitor IBMX, the cAMP accumulated owing to this stimulation and released by cell lysis is used in a competitive detection method. In this test, the cAMP present in the lysate competes with a fluorescence-labelled cAMP (cAMP-d2) for binding to an Eu cryptate-labelled anti-cAMP antibody.
In the absence of cellular cAMP, a maximal signal is produced, which is attributable to the binding of this cAMP-d2 molecule to the antibody. After excitation of the […] at 337 nm, there is a fluorescence resonance energy transfer (FRET) to the Eu cryptate molecules of the anti-cAMP antibody (labelled therewith), followed by a long-lasting emission signal at 665 nm (and at […]). Both signals are measured in a suitable measurement instrument with a time delay, i.e. after decay of the background fluorescence. Any increase in the low FRET signal caused by prostaglandin E2 administration (measured as well ratio change=emission665nm/emission620nm*10000) indicates the action of antagonists.
1.2.1. Test for Antagonism (Data Per Well of a 384-Well Plate):
To a test plate with the substance solutions already added (0.05 μl; 100% DMSO, concentration range from 0.8 nM-16.5 nM) were added 4 μl of a cAMP-d2/cell suspension (625000 cells/ml). After a 20-minute preincubation at room temperature (RT), 2 μl of a 3×PGE2 solution (1.5 nM, in PBS-IBMX) were added and incubated in the presence of the agonist for a further 60 mins at RT (volume: […]). Next the reaction was stopped by addition of 2 μl of lysis buffer and incubated for a further 20 mins at RT before the actual measurement (volume: ˜8 μl).
Take `COCCNC(=O)c1ccc2nn(CC3CCN(C(=O)c4ccc(OC(C)(C)C)cc4)CC3)cc2c1C` [Example E2, 2-{[1-(4-tert-butoxybenzoyl)piperidin-4-yl]methyl}-N-(2-methoxyethyl)-4-methyl-2H-indazole-5-carboxamide]: the IC50 (usually the concentration that inhibits the measured activity by half) was over 50 nM. In the case of `COCCNC(=O)c1ccc2nn(CC3CCN(C(=O)c4ccc(Oc5ccc(F)cc5)cc4)CC3)cc2c1C` [Example E3, 2-({1-[4-(4-fluorophenoxy)benzoyl]piperidin-4-yl}methyl)-N-(2-methoxyethyl)-4-methyl-2H-indazole-5-carboxamide] it was over 50 nM.

Turning to `COCCNC(=O)c1ccc2nn(CC3CCN(C(=O)c4ccc(-c5ccc(F)cc5)cc4)CC3)cc2c1C` [Example E5, 2-({1-[(4′-fluorobiphenyl-4-yl)carbonyl]piperidin-4-yl}methyl)-N-(2-methoxyethyl)-4-methyl-2H-indazole-5-carboxamide], the IC50 was over 50 nM. Take `COCCNC(=O)c1ccc2nn(CC3CCN(C(=O)c4ccc(OC)cc4F)CC3)cc2c1C` [Example E7, 2-{[1-(2-fluoro-4-methoxybenzoyl)piperidin-4-yl]methyl}-N-(2-methoxyethyl)-4-methyl-2H-indazole-5-carboxamide]: the IC50 was over 50 nM. Take `COCCNC(=O)c1ccc2nn(CC3CCN(C(=O)c4ccc(Br)cc4F)CC3)cc2c1C` [Example E8, 2-{[1-(4-bromo-2-fluorobenzoyl)piperidin-4-yl]methyl}-N-(2-methoxyethyl)-4-methyl-2H-indazole-5-carboxamide]: the IC50 was over 50 nM.

`COCCNC(=O)c1ccc2nn(CC3CCN(C(=O)c4ccc(C)cc4F)CC3)cc2c1C` [Example E9, 2-{[1-(2-fluoro-4-methylbenzoyl)piperidin-4-yl]methyl}-N-(2-methoxyethyl)-4-methyl-2H-indazole-5-carboxamide] gave an IC50 of over 50 nM. `COCCNC(=O)c1ccc2nn(CC3CCN(C(=O)c4ccc(C(F)(F)F)cc4F)CC3)cc2c1C` [Example E10, 2-({1-[2-fluoro-4-(trifluoromethyl)benzoyl]piperidin-4-yl}methyl)-N-(2-methoxyethyl)-4-methyl-2H-indazole-5-carboxamide] came in with an IC50 of over 50 nM. In turn, `COCCNC(=O)c1ccc2nn(CC3CCN(C(=O)c4ccc(S(F)(F)(F)(F)F)cc4)CC3)cc2c1C` [Example E11, N-(2-methoxyethyl)-4-methyl-2-({1-[4-(pentafluoro-λ^6-sulphanyl)benzoyl]piperidin-4-yl}methyl)-2H-indazole-5-carboxamide] came in with an IC50 of over 50 nM. Next, `COCCNC(=O)c1ccc2nn(CC3CCN(C(=O)c4ccc(C)cc4)CC3)cc2c1C` [Example E12, N-(2-methoxyethyl)-4-methyl-2-{[1-(4-methylbenzoyl)piperidin-4-yl]methyl}-2H-indazole-5-carboxamide]: over 50 nM. For `COCCNC(=O)c1ccc2nn(CC3CCN(C(=O)c4ccc(Oc5ccc(Cl)cc5)cc4)CC3)cc2c1C` [Example E13, 2-({1-[4-(4-chlorophenoxy)benzoyl]piperidin-4-yl}methyl)-N-(2-methoxyethyl)-4-methyl-2H-indazole-5-carboxamide], the IC50 was over 50 nM. Next, `COCCNC(=O)c1ccc2nn(CC3CCN(C(=O)c4ccc(Oc5ccc(C)cc5)cc4)CC3)cc2c1C` [Example E14, N-(2-methoxyethyl)-4-methyl-2-({1-[4-(4-methylphenoxy)benzoyl]piperidin-4-yl}-methyl)-2H-indazole-5-carboxamide]: over 50 nM; `COCCNC(=O)c1ccc2nn(CC3CCN(C(=O)c4ccc(Oc5ccc(C(C)(C)C)cc5)cc4)CC3)cc2c1C` [Example E15, 2-({1-[4-(4-tert-butylphenoxy)benzoyl]piperidin-4-yl}methyl)-N-(2-methoxyethyl)-4-methyl-2H-indazole-5-carboxamide]: over 50 nM.

The compound `COCCNC(=O)c1ccc2nn(CC3CCN(C(=O)c4ccc(Oc5ccc(OC)cc5)cc4)CC3)cc2c1C` [Example E17, N-(2-methoxyethyl)-2-({1-[4-(4-methoxyphenoxy)benzoyl]piperidin-4-yl}methyl)-4-methyl-2H-indazole-5-carboxamide] displayed an IC50 of over 50 nM.

In turn, `COCCNC(=O)c1ccc2nn(CC3CCN(C(=O)c4ccc(Oc5ccccc5)cc4)CC3)cc2c1C` [Example E18, N-(2-methoxyethyl)-4-methyl-2-{[1-(4-phenoxybenzoyl)piperidin-4-yl]methyl}-2H-indazole-5-carboxamide] came in with an IC50 of over 50 nM. In the case of `COCCNC(=O)c1ccc2nn(CC3CCN(C(=O)c4ccc(C5CC5)cc4)CC3)cc2c1C` [Example E19, 2-{[1-(4-cyclopropylbenzoyl)piperidin-4-yl]methyl}-N-(2-methoxyethyl)-4-methyl-2H-indazole-5-carboxamide] it was over 50 nM; in that of `COCCNC(=O)c1ccc2nn(CC3CCN(C(=O)c4ccc(OC)cc4)CC3)cc2c1C` [Example E20, 2-{[1-(4-methoxybenzoyl)piperidin-4-yl]methyl}-N-(2-methoxyethyl)-4-methyl-2H-indazole-5-carboxamide], over 50 nM; in that of `COCCNC(=O)c1ccc2nn(CC3CCN(C(=O)c4ccc(F)cc4)CC3)cc2c1C` [Example E21, 2-{[1-(4-fluorobenzoyl)piperidin-4-yl]methyl}-N-(2-methoxyethyl)-4-methyl-2H-indazole-5-carboxamide], over 50 nM. Next, `COCCNC(=O)c1ccc2nn(CC3CCN(C(=O)c4ccc(C(F)(F)F)cc4)CC3)cc2c1C` [Example E22, N-(2-methoxyethyl)-4-methyl-2-({1-[4-(trifluoromethyl)benzoyl]piperidin-4-yl}-methyl)-2H-indazole-5-carboxamide]: over 50 nM.

Take `COCCNC(=O)c1ccc2nn(CC3CCN(C(=O)c4ccc(S(=O)(=O)C(F)(F)F)cc4)CC3)cc2c1C` [Example E24, N-(2-methoxyethyl)-4-methyl-2-[(1-{4-[(trifluoromethyl)sulphonyl]benzoyl}piperidin-4-yl)methyl]-2H-indazole-5-carboxamide]: the IC50 is over 50 nM. Regarding `COCCNC(=O)c1ccc2nn(CC3CCN(C(=O)c4cccc(C(F)(F)F)c4)CC3)cc2c1C` [Example E25], the IC50 was over 50 nM. Next, `COCCNC(=O)c1ccc2nn(CC3CCN(C(=O)c4cccc(C)c4)CC3)cc2c1C` [Example E26, N-(2-methoxyethyl)-4-methyl-2-{[1-(3-methylbenzoyl)piperidin-4-yl]methyl}-2H-indazole-5-carboxamide]: over 50 nM.

Take `COCCNC(=O)c1ccc2nn(CC3CCN(C(=O)c4cccc(Cl)c4)CC3)cc2c1C` [Example E27, 2-{[1-(3-chlorobenzoyl)piperidin-4-yl]methyl}-N-(2-methoxyethyl)-4-methyl-2H-indazole-5-carboxamide]: the IC50 was over 50 nM. Next, `COCCNC(=O)c1ccc2nn(CC3CCN(C(=O)c4ccc(OC5CCCC5)cc4)CC3)cc2c1C` [Example E29, 2-({1-[4-(cyclopentyloxy)benzoyl]piperidin-4-yl}methyl)-N-(2-methoxyethyl)-4-methyl-2H-indazole-5-carboxamide]: over 50 nM; `COCCNC(=O)c1ccc2nn(CC3CCN(C(=O)c4ccc(C(F)F)cc4)CC3)cc2c1C` [Example E30, 2-({1-[4-(difluoromethyl)benzoyl]piperidin-4-yl}methyl)-N-(2-methoxyethyl)-4-methyl-2H-indazole-5-carboxamide]: over 50 nM.

The compound `COCCNC(=O)c1ccc2nn(CC3CCN(C(=O)c4ccc(C#N)cc4)CC3)cc2c1C` [Example E31, 2-{[1-(4-cyanobenzoyl)piperidin-4-yl]methyl}-N-(2-methoxyethyl)-4-methyl-2H-indazole-5-carboxamide] showed an IC50 of over 50 nM. In the case of `COCCNC(=O)c1ccc2nn(CC3CCN(C(=O)c4ccc(-n5cccn5)cc4)CC3)cc2c1C` [Example E36, N-(2-methoxyethyl)-4-methyl-2-({1-[4-(1H-pyrazol-1-yl)benzoyl]piperidin-4-yl}-methyl)-2H-indazole-5-carboxamide] it was over 50 nM; in that of `COCCNC(=O)c1ccc2nn(CC3CCN(C(=O)c4ccc(OC(F)F)cc4F)CC3)cc2c1C` [Example E38, 2-({1-[4-(difluoromethoxy)-2-fluorobenzoyl]piperidin-4-yl}methyl)-N-(2-methoxy-ethyl)-4-methyl-2H-indazole-5-carboxamide], over 50 nM. `COCCNC(=O)c1ccc2nn(CC3CCN(C(=O)c4ccc(N5CCCC5)cc4F)CC3)cc2c1C` [Example E39, 2-({1-[2-fluoro-4-(pyrrolidin-1-yl)benzoyl]piperidin-4-yl}methyl)-N-(2-methoxyethyl)-4-methyl-2H-indazole-5-carboxamide] registered an IC50 of over 50 nM.
